# Several values for one entry are separate records, joined by “and”; a condition that tells them apart may be missing. Equal values may be shown once. Results filed as inconclusive are left out.
# System: MX-1 breast xenograft, intrarenal, nude mice, tumor weight
# Test: NCI In Vivo Anticancer Drug Screen. Data for tumor model Human Mammary Carcinoma MX-1 Xenograft (intrarenal inoculation) in NU/NU BALB/C (nude) mice
# Conditions: endpoint: mean tumor weight change, higher = larger tumour
# How it was run: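 Antitumor activity is expressed as a T/C ratio. The treated group's tumor size or survival is compared against the vehicle-treated control group in mice bearing transplanted tumors.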
# [1] = dose: 30.0 mg/kg/injection, schedule: Q04DX003 (ip), vehicle: saline with Tween-80
# [2] = dose: 300.0 mg/kg/injection, schedule: Q04DX003 (sc), vehicle: Klucel (hydroxypropylcellulose) (HPC)
# [3] = dose: 37.5 mg/kg/injection, schedule: Q04DX003 (sc), vehicle: saline with Tween-80
# [4] = dose: 75.0 mg/kg/injection, schedule: Q04DX003 (sc), vehicle: saline with Tween-80
compound,measurement,setting,value
c1ccc2[nH]c(CN(CCN(Cc3nc4ccccc4[nH]3)Cc3nc4ccccc4[nH]3)Cc3nc4ccccc4[nH]3)nc2c1,T/C,"dose: 6.25 mg/kg/injection, schedule: Q04DX003 (ip), vehicle: DMSO",59 % of control and 68 % of control
same,T/C,"dose: 50.0 mg/kg/injection, schedule: Q04DX003 (ip), vehicle: DMSO",62 % of control
Cc1ccc2c(c1)n([O-])c1cc(Cl)ccc1[n+]2=O,T/C,"dose: 150.0 mg/kg/injection, schedule: Q04DX003 (ip), vehicle: saline with Tween-80",84 % of control and 86 % of control
same,T/C,"dose: 300.0 mg/kg/injection, schedule: Q04DX003 (ip), vehicle: saline with Tween-80",56 % of control and 66 % of control
NC(=O)C1=CC2C3C=CC2(O)C(=O)OC3O1 (stereo not drawn),T/C,"dose: 37.5 mg/kg/injection, schedule: Q04DX003 (ip), vehicle: Klucel (hydroxypropylcellulose) (HPC)",54 % of control
same,T/C,"dose: 75.0 mg/kg/injection, schedule: Q04DX003 (ip), vehicle: Klucel (hydroxypropylcellulose) (HPC)",42 % of control
N#Cc1c(N)[nH]c2ccc(Sc3ccccc3)cc12,T/C,[1],92 % of control
same,T/C,"dose: 60.0 mg/kg/injection, schedule: Q04DX003 (ip), vehicle: saline with Tween-80",88 % of control
same,T/C,"dose: 120.0 mg/kg/injection, schedule: Q04DX003 (ip), vehicle: saline with Tween-80",75 % of control
COc1ccc2ccccc2c1C1NC(=O)c2ccccc2N1 (stereo not drawn),T/C,[2],79 % of control
same,T/C,"dose: 600.0 mg/kg/injection, schedule: Q04DX003 (sc), vehicle: Klucel (hydroxypropylcellulose) (HPC)",104 % of control
same,T/C,"dose: 1200.0 mg/kg/injection, schedule: Q04DX003 (sc), vehicle: Klucel (hydroxypropylcellulose) (HPC)",90 % of control
same,T/C,"dose: 2400.0 mg/kg/injection, schedule: Q04DX003 (sc), vehicle: Klucel (hydroxypropylcellulose) (HPC)",63 % of control
O=C(Nc1ccccc1CCl)Nc1ccccc1CCl,T/C,"dose: 1200.0 mg/kg/injection, schedule: Q04DX003 (ip), vehicle: saline with Tween-80",9 % of control and 12 % of control and 20 % of control
CC(=O)O[C@H]1C(=O)[C@@]2(C)C(C(OC(=O)c3ccccc3)[C@]3(O)C[C@H](OC(=O)C(O)C(NC(=O)c4ccccc4)c4ccccc4)C(C)=C1C3(C)C)C1(OC(C)=O)COC1C[C@@H]2OC(=O)CN(C)C (stereo partly drawn) (tested in a mixture with another compound),T/C,"dose: 4.13 mg/kg/injection, schedule: Q01DX009 (ip), vehicle: water",34 % of control
same,T/C,"dose: 8.25 mg/kg/injection, schedule: Q01DX009 (ip), vehicle: water",23 % of control
same,T/C,"dose: 16.5 mg/kg/injection, schedule: Q01DX009 (ip), vehicle: water",-93 % of control
same,T/C,"dose: 33.0 mg/kg/injection, schedule: Q01DX009 (ip), vehicle: water",-100 % of control
N/C(=N/N=C/c1cc(Br)cc(Br)c1O)NO,T/C,"dose: 50.0 mg/kg/injection, schedule: Q04DX003 (ip), vehicle: suspension in saline",107 % of control
same,T/C,"dose: 200.0 mg/kg/injection, schedule: Q04DX003 (ip), vehicle: suspension in saline",27 % of control
CCOC1=Cc2c(oc3c(C(C)(C)C)cc(OCC)cc23)OC(C(C)(C)C)=C1,T/C,[3],94 % of control
same,T/C,[4],98 % of control
same,T/C,"dose: 150.0 mg/kg/injection, schedule: Q04DX003 (sc), vehicle: saline with Tween-80",121 % of control
same,T/C,"dose: 300.0 mg/kg/injection, schedule: Q04DX003 (sc), vehicle: saline with Tween-80",92 % of control and 111 % of control
same,T/C,"dose: 600.0 mg/kg/injection, schedule: Q04DX003 (sc), vehicle: saline with Tween-80",77 % of control
same,T/C,"dose: 2400.0 mg/kg/injection, schedule: Q04DX003 (sc), vehicle: saline with Tween-80",73 % of control
CC(NNC(=S)N(C)C1CCCCC1)c1cc2ccccc2cn1 (stereo not drawn),T/C,"dose: 150.0 mg/kg/injection, schedule: Q04DX003 (ip), vehicle: saline",80 % of control
CCOC(=O)Nc1cc2c(c(N)n1)N=C(c1ccc3ccccc3c1)CN2,T/C,"dose: 3.75 mg/kg/injection, schedule: Q04DX003 (ip), vehicle: saline with Tween-80",73 % of control
same,T/C,"dose: 7.5 mg/kg/injection, schedule: Q04DX003 (ip), vehicle: saline with Tween-80",81 % of control
same,T/C,"dose: 15.0 mg/kg/injection, schedule: Q04DX003 (ip), vehicle: saline with Tween-80",44 % of control
same,T/C,[1],34 % of control
Nc1cc2c(cc1Br)-c1c(C(=O)O)cccc1C2O (stereo not drawn),T/C,"dose: 150.0 mg/kg/injection, schedule: Q04DX003 (ip), vehicle: sodium bicarbonate",97 % of control
same,T/C,"dose: 300.0 mg/kg/injection, schedule: Q04DX003 (ip), vehicle: sodium bicarbonate",94 % of control
same,T/C,"dose: 600.0 mg/kg/injection, schedule: Q04DX003 (ip), vehicle: sodium bicarbonate",101 % of control
same,T/C,"dose: 1200.0 mg/kg/injection, schedule: Q04DX003 (ip), vehicle: sodium bicarbonate",92 % of control
CCN(CC)c1cc(C(=O)O)cc(N(CC)CC)n1,T/C,"dose: 50.0 mg/kg/injection, schedule: Q04DX003 (ip), vehicle: other",155 % of control
same,T/C,"dose: 100.0 mg/kg/injection, schedule: Q04DX003 (ip), vehicle: other",74 % of control
COc1ccc(-c2cc(C(=O)Nc3cc(C(F)(F)F)cc(C(F)(F)F)c3)c3ccccc3n2)cc1,T/C,"dose: 150.0 mg/kg/injection, schedule: Q04DX003 (ip), vehicle: DMSO",103 % of control
same,T/C,"dose: 300.0 mg/kg/injection, schedule: Q04DX003 (ip), vehicle: DMSO",70 % of control
same,T/C,"dose: 600.0 mg/kg/injection, schedule: Q04DX003 (ip), vehicle: DMSO",78 % of control
c1ccc(P(CCNCCP(c2ccccc2)c2ccccc2)c2ccccc2)cc1,T/C,"dose: 100.0 mg/kg/injection, schedule: Q04DX003 (ip), vehicle: saline with Tween-80",111 % of control
same,T/C,"dose: 200.0 mg/kg/injection, schedule: Q04DX003 (ip), vehicle: saline with Tween-80",106 % of control
same,T/C,"dose: 800.0 mg/kg/injection, schedule: Q04DX003 (ip), vehicle: saline with Tween-80",81 % of control
CO[C@@]12[C@@H]3N[C@@H]3CN1C1=C(C(=O)C(NCC3CCCO3)=C(C)C1=O)[C@@H]2COC(N)=O (stereo partly drawn),T/C,"dose: 6.25 mg/kg/injection, schedule: Q04DX003 (ip), vehicle: Klucel (hydroxypropylcellulose) (HPC)",43 % of control
same,T/C,"dose: 12.5 mg/kg/injection, schedule: Q04DX003 (ip), vehicle: Klucel (hydroxypropylcellulose) (HPC)",56 % of control and 57 % of control
same,T/C,"dose: 12.5 mg/kg/injection, schedule: Q04DX003 (ip), vehicle: distilled water + Tween-80",1 % of control and 3 % of control
same,T/C,"dose: 25.0 mg/kg/injection, schedule: Q04DX003 (ip), vehicle: Klucel (hydroxypropylcellulose) (HPC)",35 % of control and 59 % of control
same,T/C,"dose: 50.0 mg/kg/injection, schedule: Q04DX003 (ip), vehicle: Klucel (hydroxypropylcellulose) (HPC)",28 % of control and 32 % of control
same,T/C,"dose: 50.0 mg/kg/injection, schedule: Q04DX003 (ip), vehicle: distilled water + Tween-80",-4 % of control
same,T/C,"dose: 100.0 mg/kg/injection, schedule: Q04DX003 (ip), vehicle: Klucel (hydroxypropylcellulose) (HPC)",14 % of control
Cc1cc2cc3cc(C)c(N)cc3nc2cc1N,T/C,"dose: 200.0 mg/kg/injection, schedule: Q04DX003 (sc), vehicle: saline with Tween-80",161 % of control
same,T/C,"dose: 400.0 mg/kg/injection, schedule: Q04DX003 (sc), vehicle: saline with Tween-80",106 % of control
same,T/C,"dose: 800.0 mg/kg/injection, schedule: Q04DX003 (sc), vehicle: saline with Tween-80",107 % of control
same,T/C,"dose: 1600.0 mg/kg/injection, schedule: Q04DX003 (sc), vehicle: saline with Tween-80",107 % of control
C=C(C)C(=O)O[C@H]1CC2=C[C@@H](C[C@@]3(C)O[C@@H]3[C@H]3OC(=O)C(=C)[C@@H]31)OC2=O,T/C,"dose: 37.5 mg/kg/injection, schedule: Q04DX003 (sc), vehicle: Klucel (hydroxypropylcellulose) (HPC)",96 % of control
same,T/C,"dose: 75.0 mg/kg/injection, schedule: Q04DX003 (sc), vehicle: Klucel (hydroxypropylcellulose) (HPC)",78 % of control
same,T/C,"dose: 150.0 mg/kg/injection, schedule: Q04DX003 (sc), vehicle: Klucel (hydroxypropylcellulose) (HPC)",104 % of control
same,T/C,[2],72 % of control
c1ccc2c(c1)-c1ccccc1C1NC21 (stereo not drawn),T/C,[3],60 % of control
same,T/C,[4],30 % of control
COC(=O)NC1C(C)OC(OC2C/C=C(/C)C3C=CC4C(OC5CC(OC6CC(OC7CC(O)C(O)C(C)O7)C(OC7CC(O)C(OC)C(C)O7)C(C)O6)C(O)C(C)O5)C(C)CC(C)C4C3(C)/C(O)=C3\C(=O)OC4(CC(C)C(CO)=CC4/C=C\2C)C3=O)CC1(C)[N+](=O)[O-] (stereo not drawn),T/C,"dose: 75.0 mg/kg/injection, schedule: Q04DX003 (ip), vehicle: water",198 % of control
same,T/C,"dose: 150.0 mg/kg/injection, schedule: Q04DX003 (ip), vehicle: water",120 % of control
same,T/C,"dose: 300.0 mg/kg/injection, schedule: Q04DX003 (ip), vehicle: water",73 % of control
CCOC(=O)NC1=C(N2CC2)C(=O)C(NC(=O)OCC)=C(N2CC2)C1=O,T/C,"dose: 1.56 mg/kg/injection, schedule: Q01DX010 (sc), vehicle: saline",45 % of control
same,T/C,"dose: 3.13 mg/kg/injection, schedule: Q01DX010 (sc), vehicle: saline",13 % of control
same,T/C,"dose: 6.25 mg/kg/injection, schedule: Q01DX010 (sc), vehicle: saline",-75 % of control
NC(=S)N/N=C/c1ncccc1O,T/C,"dose: 150.0 mg/kg/injection, schedule: Q04DX003 (ip), vehicle: suspension in saline",86 % of control
same,T/C,"dose: 300.0 mg/kg/injection, schedule: Q04DX003 (ip), vehicle: suspension in saline",93 % of control
